Data: patent US20100003302A1, “VASCULAR RESTENOSIS PREVENTING AGENT AND IMPLANTABLE INTRAVASCULAR DEVICE COATED THEREWITH” (priority 2001, published 2010)
Values belong to the molecule of their own block, whether it stands above or below them.

Experiments:
[1] = system: vascular smooth muscles (HNB18E6E7 cell line); assay: Migration of vascular smooth muscle cells into fibrin gel containing N-chlorsuccinimide; format: cell-based, human; details: 37° C., 24 hours
Procedure: The vascular smooth muscles were collected from human vital arteries and established HNB18E6E7 was used as cell lines. The vascular smooth muscles were incubated in 6-well plates to produce confluent cultures. The resultant supernatant fluids were washed three time with warmed phosphate buffer solution (PBS) and softly added with 3 mg/mL of fibrinogen and 0.8 mL of Waymouth culture solution including 10 w/v % human serum. Then, the supernatant fluids were respectively added with N-chlorsuccinimide to adjust the final concentration of N-chlorsuccinimide to 0.08 mM, 0.8 mM, 8 mM and 80 mM, and gelled by addition of thrombin. The resultant gelled supernatants were incubated at 37° C. for 24 hours, and the numbers of the smooth muscle cells migrated into the gel was counted with a phase contrast microscope. For each concentration, the experiments were carried out to make n=3. The ordinate denotes the frequencies of migration of vascular smooth muscles into the gel, while the abscissa denotes the concentration of N-chlorsuccinimide.

[2] = system: right common iliac artery vascular injury model; assay: Neointimal formation in vascular injury model (right common iliac artery 3-times balloon injury); format: in vivo, rabbits; details: local administration by balloon immersed in 80 mM N-chlorsuccinimide vs PBS control; 4 weeks after treatment
Procedure: There were used a group of animals consisted of 5 (five) […] male rabbits aged 2 months. Vascular injury models were prepared by introducing a Fogarty catheter, Model e-060-2F, made by Baxter corporation (that is an arterial embolectomy balloon catheter) into the right common iliac artery through the right femoral artery under pentobarbital anesthesia, and then abrading the right common iliac artery 3 times under conditions of the balloon being inflated (balloon pressure: 0.5-1.0 atm). After injuring the vascular endothelium, hydrophilic balloons made by Boston Scientific Corporation, of an N-chlorsuccinimide-treated group prepared by immersing the balloons in 80 mM N-chlorsuccinimide, and of a control group prepared by immersing the balloons in PBS, were respectively inflated in the right common iliac arteries to locally administer the drug to each injured area. After 4 weeks from the treatment, the arteries were surgically removed, fixed with 10w/v % neutral buffered formalin fixative and then sectioned to prepare arterial ring tissue sections. After preparing elastic fiber stained tissue samples by EVG (Elastic Van Gieson) staining, the samples were subjected to measurements of intimal area (I) and medial area (M) to determine their ratio (I/M) as the degree of intimal thickening. […]

[3] = target: T1, α2-macroglobulin (Homo sapiens, UniProt P01023); assay: Deactivation of α2-macroglobulin (trypsin / coloring matrix S2222 assay, absorption at 405 nm); format: biochemical
T1 sequence (P01023 24-1474): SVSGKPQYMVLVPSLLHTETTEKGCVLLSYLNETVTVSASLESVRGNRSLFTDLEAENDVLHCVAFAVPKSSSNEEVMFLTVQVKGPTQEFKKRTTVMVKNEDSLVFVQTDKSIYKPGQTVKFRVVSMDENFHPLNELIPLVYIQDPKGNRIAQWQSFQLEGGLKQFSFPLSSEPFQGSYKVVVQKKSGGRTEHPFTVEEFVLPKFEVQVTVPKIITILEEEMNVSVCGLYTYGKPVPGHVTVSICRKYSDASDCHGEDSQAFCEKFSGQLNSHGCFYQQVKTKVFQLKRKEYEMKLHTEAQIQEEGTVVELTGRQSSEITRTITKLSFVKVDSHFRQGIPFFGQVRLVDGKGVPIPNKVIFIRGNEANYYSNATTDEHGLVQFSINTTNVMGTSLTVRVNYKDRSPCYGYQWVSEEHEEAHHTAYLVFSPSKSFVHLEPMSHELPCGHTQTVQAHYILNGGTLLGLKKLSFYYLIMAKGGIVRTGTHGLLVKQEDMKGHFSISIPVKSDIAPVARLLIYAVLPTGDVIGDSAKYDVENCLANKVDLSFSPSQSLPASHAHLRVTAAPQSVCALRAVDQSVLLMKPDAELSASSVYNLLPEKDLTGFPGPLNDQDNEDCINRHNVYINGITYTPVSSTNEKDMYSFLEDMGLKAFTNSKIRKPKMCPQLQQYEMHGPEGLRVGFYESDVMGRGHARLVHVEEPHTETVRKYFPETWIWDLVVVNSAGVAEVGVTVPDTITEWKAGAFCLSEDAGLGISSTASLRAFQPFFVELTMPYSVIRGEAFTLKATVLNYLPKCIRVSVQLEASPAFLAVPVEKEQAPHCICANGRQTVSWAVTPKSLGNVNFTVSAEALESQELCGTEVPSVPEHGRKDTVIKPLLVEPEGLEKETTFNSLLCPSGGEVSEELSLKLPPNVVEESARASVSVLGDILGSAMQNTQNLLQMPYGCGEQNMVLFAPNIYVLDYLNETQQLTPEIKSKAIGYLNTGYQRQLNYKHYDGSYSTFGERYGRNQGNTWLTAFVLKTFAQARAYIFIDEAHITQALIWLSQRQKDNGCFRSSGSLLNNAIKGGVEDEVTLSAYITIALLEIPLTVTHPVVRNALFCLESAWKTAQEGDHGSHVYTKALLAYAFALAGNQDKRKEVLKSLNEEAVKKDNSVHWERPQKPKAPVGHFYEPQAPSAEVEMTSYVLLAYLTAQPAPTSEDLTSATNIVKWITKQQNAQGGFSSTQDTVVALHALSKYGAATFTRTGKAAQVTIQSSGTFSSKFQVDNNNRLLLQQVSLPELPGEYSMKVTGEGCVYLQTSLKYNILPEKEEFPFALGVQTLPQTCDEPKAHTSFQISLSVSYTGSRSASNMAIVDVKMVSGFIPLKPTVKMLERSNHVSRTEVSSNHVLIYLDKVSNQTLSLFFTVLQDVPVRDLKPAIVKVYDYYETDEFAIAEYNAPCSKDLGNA
Procedure: Utilizing the facts that trypsin is inhibited by α2-macroglobulin and that trypsin causes yellow coloring of a coloring matrix S2222 resulting from decomposition thereof, verification was carried out for effects of methylamine, ethylamine, polyethyleneimines with molecular weights of 600 and 10000, tobramycin, ammonia, lysozyme chloride and polylysine on deactivation of α2-macroglobulin. A concrete method will be given below.
Firstly, each of methylamine, ethylamine, polyethyleneimines with molecular weights of 600 and 10000, tobramycin, ammonia, lysozyme chloride and polylysine was diluted to 0.0001 w/v %, 0.001 w/v %, 0.01 w/v %, 0.1 w/v % and 1 w/v % to prepare a series of diluted solutions as sample solutions. 50 μL of each sample solution was added with 50 μL of 2.5×10^−4 w/v % α2-macroglobulin and left for 5 minutes at room temperature. Then, the sample solution was added with 50 μL of a 5 w/v % trypsin EDTA solution, left for 5 minutes at room temperature, and then added with 10 μL of the coloring matrix S2222. After leaving the resultant sample solution for 20 minutes at room temperature, the sample solution was added with 50 μL of 10 w/v % acetic acid solution to stop reactions, and then subjected to measurement of absorption of light with a wave length of 405 nm, using 50 mM tris(hydroxymethyl)aminomethane buffer solution of pH 8.0 as the blank. The dilution of all the samples and agents was carried out by a 50 mM tris(hydroxymethyl)aminomethane buffer solution of pH 8.0. Results are shown in FIG. 5, in which the ordinate denotes the deactivation rate of α2-macroglobulin, and the abscissa denotes the concentrations of respective compounds.

[4] = compound concentration 0.1 w/v %

Molecule: O=C1CCC(=O)N1Cl [N-chlorsuccinimide]
number of migrating vascular smooth muscles ([1]; 80 mM N-chlorsuccinimide in fibrin gel): vanished completely
frequency of migration of the vascular smooth muscles into the gel ([1]; N-chlorsuccinimide 0.08, 0.8, 8 and 80 mM in fibrin gel, n=3): decreases apparently with increasing concentration
neointimal hyperplasia (degree of intimal thickening, I/M ratio) [2]: considerably inhibited

Molecule: CN [methylamine]
deactivation rate of α2-macroglobulin ([3]; compound concentration 1 w/v %): about 100%

Molecule: polylysine
deactivation rate of α2-macroglobulin [3, 4]: 100%

deactivation rate of α2-macroglobulin [3, 4]: 100%
Molecule: lysozyme chloride
